Assay results taken from patent publication US20230301300A1, “HERBICIDAL COMPOSITIONS” (SYNGENTA CROP PROTECTION AG, priority 2020, published 2023).

Legend:
Assay in all cases: B2 Post-Emergence Efficacy - Test 2
Type in all cases: in vivo
[1] = tested on: Poa annua (POAAN); conditions: 15 days after application, 0-100 scale
Method in brief: (§1)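 Herbicidal effect was rated visually from 0 (no damage) to 100 (complete kill) fifteen days after treatment. Seedlings had been raised for 12 days under controlled glasshouse conditions and then sprayed with the active ingredient formulated in IF50, diluted in water with 0.2% v/v Genapol X080 adjuvant.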

[2] = tested on: Galium aparine (GALAP); conditions: 15 days after application, 0-100 scale
Method in brief: as §1

[3] = tested on: Panicum miliaceum (PANMI); conditions: 15 days after application, 0=no damage, 100=total kill
Method in brief: as §1

[4] = tested on: Polygonum convolvulus (POLCO); conditions: 15 days after application, 0-100 scale
Method in brief: as §1

| SMILES | Herbicidal activity POAAN ([1]; 15 g/Ha) | Herbicidal activity POAAN ([1]; 30 g/Ha) | Herbicidal activity POAAN ([1]; 60 g/Ha) | Herbicidal activity POAAN ([1]; 125 g/Ha) | Herbicidal activity POAAN ([1]; 250 g/Ha) | Herbicidal activity POAAN ([1]; 500 g/Ha) | Herbicidal activity GALAP ([2]; 30 g/Ha) | Herbicidal activity GALAP ([2]; 60 g/Ha) | Herbicidal activity GALAP ([2]; 125 g/Ha) | Herbicidal activity GALAP ([2]; 250 g/Ha) | Herbicidal activity GALAP ([2]; 500 g/Ha) | Herbicidal activity on a 0-100 scale, PANMI ([3]; 15 g/Ha) | Herbicidal activity on a 0-100 scale, PANMI ([3]; 30 g/Ha) | Herbicidal activity on a 0-100 scale, PANMI ([3]; 60 g/Ha) | Herbicidal activity on a 0-100 scale, PANMI ([3]; 125 g/Ha) | Herbicidal activity on a 0-100 scale, PANMI ([3]; 250 g/Ha) | Herbicidal activity on a 0-100 scale, PANMI ([3]; 500 g/Ha) | Herbicidal activity POLCO ([4]; 15 g/Ha) | Herbicidal activity POLCO ([4]; 60 g/Ha) | Herbicidal activity POLCO ([4]; 125 g/Ha) | other results |
| --- | --- | --- | --- | --- | --- | --- | --- | --- | --- | --- | --- | --- | --- | --- | --- | --- | --- | --- | --- | --- | --- |
| Cc1nn(C)c(=O)c(-c2c(F)ccc(Cl)c2CCc2ccc(F)cc2)c1OC(=O)C(C)C [Compound 1.125, [5-[3-chloro-6-fluoro-2-[2-(4-fluorophenyl)ethyl]phenyl]-1,3-dimethyl-6-oxo-pyridazin-4-yl] 2-methylpropanoate] | 0 | 10 | 20 | 60 | 70 | 60 | 20 | 20 | 30 | 40 | 70 | 20 | 30 | 50 | 50 | 70 | 80 | 90 | 90 | 90 | Herbicidal activity POLCO ([4]; 30 g/Ha): 90; Herbicidal activity POLCO ([4]; 250 g/Ha): 90; Herbicidal activity POLCO ([4]; 500 g/Ha): 90 |
| Cc1nn(C)c(=O)c(-c2c(F)ccc(Cl)c2CCc2ccc(C(F)(F)F)nc2)c1O [Compound 1.042, 4-[3-chloro-6-fluoro-2-[2-[6-(trifluoromethyl)-3-pyridyl]ethyl]phenyl]-5-hydroxy-2,6-dimethyl-pyridazin-3-one] | 20 | 70 | 80 | 90 | 90 | 90 | 30 | 60 | 80 | 80 | 90 | 10 | 60 | 80 | 90 | 100 | 100 | 80 | 90 | 90 | Herbicidal activity GALAP ([2]; 15 g/Ha): 10; Herbicidal activity POLCO ([4]; 30 g/Ha): 80; Herbicidal activity POLCO ([4]; 250 g/Ha): 90; Herbicidal activity POLCO ([4]; 500 g/Ha): 100 |
| Cc1nn(C)c(=O)c(-c2c(F)ccc(Cl)c2CCc2ccc(C#N)cc2)c1O [Compound 1.024, 4-[3-chloro-6-fluoro-2-[2-[4-(cyano)phenyl]ethyl]phenyl]-5-hydroxy-2,6-dimethyl-pyridazin-3-one] | 10 | 20 | 30 | 80 | 80 | 90 | 20 | 20 | 60 | 90 | 90 | 0 | 70 | 80 | 90 | 90 | 100 | 80 | 90 | 90 | Herbicidal activity POLCO ([4]; 250 g/Ha): 90; Herbicidal activity POLCO ([4]; 500 g/Ha): 100 |
| Cc1nn(C)c(=O)c(-c2c(F)ccc(Cl)c2CCc2ccccc2C(F)(F)F)c1O [Compound 1.066, 4-[3-chloro-6-fluoro-2-[2-[2-(trifluoromethyl)phenyl]ethyl]phenyl]-5-hydroxy-2,6-dimethyl-pyridazin-3-one] | 20 | 70 | 80 | 90 | 90 | 90 | 20 | 20 | 20 | 30 | 90 | 0 | 50 | 60 | 80 | 100 | 100 | 70 | 90 | 90 | Herbicidal activity GALAP ([2]; 15 g/Ha): 20; Herbicidal activity POLCO ([4]; 30 g/Ha): 80; Herbicidal activity POLCO ([4]; 250 g/Ha): 100; Herbicidal activity POLCO ([4]; 500 g/Ha): 100 |
| Cc1nn(C)c(=O)c(-c2c(F)ccc(Cl)c2CCc2ccc(Cl)cc2)c1OC(=O)C(C)C [Compound 1.089, [5-[3-chloro-2-[2-(4-chlorophenyl)ethyl]-6-fluoro-phenyl]-1,3-dimethyl-6-oxo-pyridazin-4-yl] 2-methylpropanoate] | 20 | 40 | 70 | 90 | 80 | 70 | 20 | – | 30 | 30 | 90 | 0 | 20 | 50 | 60 | 80 | 90 | – | – | – | Herbicidal activity GALAP ([2]; 15 g/Ha): 10 |
| Cc1nn(C)c(=O)c(-c2c(F)ccc(Cl)c2CCc2ccc(F)cc2)c1O [Compound 1.048, 4-[3-chloro-6-fluoro-2-[2-(4-fluorophenyl)ethyl]phenyl]-5-hydroxy-2,6-dimethyl-pyridazin-3-one] | 30 | 30 | 80 | 80 | 90 | 90 | 30 | 50 | 60 | 60 | 80 | 0 | 20 | 30 | 80 | 100 | 100 | 60 | 90 | 90 | Herbicidal activity GALAP ([2]; 15 g/Ha): 20; Herbicidal activity POLCO ([4]; 30 g/Ha): 70; Herbicidal activity POLCO ([4]; 250 g/Ha): 90; Herbicidal activity POLCO ([4]; 500 g/Ha): 90 |
